# Biological target: ASK1 (Apoptosis Signal-Regulating Kinase 1) (Homo sapiens (Human), UniProt Q99683)
# Experiment: ASK1 (Apoptosis Signal-Regulating Kinase 1) TR-FRET Kinase Assay (Biochemical IC50)
# Settings: TR-FRET, biotin-MBP substrate, 20 min pre-incubation, ATP added as 300 μM solution
# Sequence of ASK1 (Apoptosis Signal-Regulating Kinase 1) (Q99683 649-946): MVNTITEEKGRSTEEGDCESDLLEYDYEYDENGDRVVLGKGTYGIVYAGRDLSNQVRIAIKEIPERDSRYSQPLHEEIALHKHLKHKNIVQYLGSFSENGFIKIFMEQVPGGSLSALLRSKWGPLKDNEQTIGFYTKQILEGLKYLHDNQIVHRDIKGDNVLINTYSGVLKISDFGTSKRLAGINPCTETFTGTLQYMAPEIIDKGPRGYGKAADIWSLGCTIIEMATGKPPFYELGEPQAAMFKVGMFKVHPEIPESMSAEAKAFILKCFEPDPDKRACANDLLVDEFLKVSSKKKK
row,SMILES,IC50 [nM]
1,"O=C(Nc1cccc(-c2nncn2C2CC2)c1)c1cc(-c2cnc3[nH]ccc3c2)ccn1 [Example 92, N-(3-(4-cyclopropyl-4H-1,2,4-triazol-3-yl)phenyl)-4-(1H-pyrrolo[2,3-b]pyridin-5-yl)picolinamide]",13
2,"O=C(Nc1cccc(-c2nncn2C2CC2)c1)c1cc(-c2ccc(F)nc2)ccn1 [Example 93, N-(3-(4-cyclopropyl-4H-1,2,4-triazol-3-yl)phenyl)-6-fluoro-3,4′-bipyridine-2′-carboxamide]",43
3,"CC(C)Oc1ccc(-c2ccnc(C(=O)Nc3cccc(-c4nncn4C4CC4)c3)c2)cn1 [Example 94, N-(3-(4-cyclopropyl-4H-1,2,4-triazol-3-yl)phenyl)-6-isopropoxy-3,4′-bipyridine-2′-carboxamide]",61
4,"O=C(Nc1cccc(-c2nncn2C2CC2)c1)c1cc(-c2ccc(OC3CCC3)nc2)ccn1 [Example 95, 6-cyclobutoxy-N-(3-(4-cyclopropyl-4H-1,2,4-triazol-3-yl)phenyl)-3,4′-bipyridine-2′-carboxamide]",31
5,"O=C(Nc1cccc(-c2nncn2C2CC2)c1)c1cc(-c2ccc(S(=O)(=O)NC3CC3)cc2)ccn1 [Example 96, N-(3-(4-cyclopropyl-4H-1,2,4-triazol-3-yl)phenyl)-4-(4-(N-cyclopropylsulfamoyl)phenyl)picolinamide]",13
6,"NS(=O)(=O)c1ccc(-c2ccnc(C(=O)Nc3cccc(-c4nncn4C4CC4)c3)c2)cc1 [Example 97, N-(3-(4-cyclopropyl-4H-1,2,4-triazol-3-yl)phenyl)-4-(4-sulfamoylphenyl)picolinamide]",81
7,"CNS(=O)(=O)c1ccc(-c2ccnc(C(=O)Nc3cccc(-c4nncn4C4CC4)c3)c2)cc1 [Example 98, N-(3-(4-cyclopropyl-4H-1,2,4-triazol-3-yl)phenyl)-4-(4-(N-methylsulfamoyl)phenyl)picolinamide]",7
8,"CC(C)NS(=O)(=O)c1ccc(-c2ccnc(C(=O)Nc3cccc(-c4nncn4C4CC4)c3)c2)cc1 [Example 99, N-(3-(4-cyclopropyl-4H-1,2,4-triazol-3-yl)phenyl)-4-(4-(N-isopropylsulfamoyl)phenyl)picolinamide]",17
9,"O=C(Nc1cccc(-c2nncn2C2CC2)n1)c1cc(-c2ccc(C3CC3)nc2)ccn1 [Example 100, 6-cyclopropyl-N-(6-(4-cyclopropyl-4H-1,2,4-triazol-3-yl)pyridin-2-yl)-3,4′-bipyridine-2′-carboxamide]",6
10,"CS(=O)(=O)c1ccc(-c2ccnc(C(=O)Nc3cccc(-c4nncn4C4CC4)n3)c2)cc1 [Example 101, N-(6-(4-cyclopropyl-4H-1,2,4-triazol-3-yl)pyridin-2-yl)-4-(4-(methylsulfonyl)phenyl)picolinamide]",7
11,"CC(C)c1ccc(-c2ccnc(C(=O)Nc3cccc(-c4nncn4C4CC4)c3)c2)cn1 [Example 102, N-(3-(4-cyclopropyl-4H-1,2,4-triazol-3-yl)phenyl)-6-isopropyl-3,4′-bipyridine-2′-carboxamide]",9
12,"O=C(Nc1cccc(-c2nncn2C2CC2)c1)c1cc(-c2ccc(C3CCC3)nc2)ccn1 [Example 103, 6-cyclobutyl-N-(3-(4-cyclopropyl-4H-1,2,4-triazol-3-yl)phenyl)-3,4′-bipyridine-2′-carboxamide]",11
13,"O=C(Nc1cccc(-c2nncn2C2CC2)c1)c1cc(-c2ccc(OC3CC3)nc2)ccn1 [Example 104, 6-cyclopropoxy-N-(3-(4-cyclopropyl-4H-1,2,4-triazol-3-yl)phenyl)-3,4′-bipyridine-2′-carboxamide]",12
14,"O=C(Nc1cccc(-c2nncn2C2CC2)c1)c1cc(-c2ccc(N3CCNC3=O)cc2)ccn1 [Example 105, N-(3-(4-cyclopropyl-4H-1,2,4-triazol-3-yl)phenyl)-4-(4-(2-oxoimidazolidin-1-yl)phenyl)picolinamide]",15
15,"CCc1ccc(-c2ccnc(C(=O)Nc3cccc(-c4nncn4C4CC4)c3)c2)cn1 [Example 106, N-(3-(4-cyclopropyl-4H-1,2,4-triazol-3-yl)phenyl)-6-ethyl-3,4′-bipyridine-2′-carboxamide]",8
16,"O=C(Nc1cccc(-c2cncn2C2CC2)c1)c1cc(-c2ccc(C3CC3)nc2)ccn1 [Example 107, 6-cyclopropyl-N-(3-(1-cyclopropyl-1H-imidazol-5-yl)phenyl)-3,4′-bipyridine-2′-carboxamide]",31
17,"O=C(Nc1cccc(-c2cncn2C2CC2)c1)c1cc(-c2cnc3ccccc3c2)ccn1 [Example 108, N-(3-(1-cyclopropyl-1H-imidazol-5-yl)phenyl)-4-(quinolin-3-yl)picolinamide]",41
18,"O=C(Nc1cccc(-c2nncn2C2CC2)c1)c1cc(-c2ccc(C3CCCC3)nc2)ccn1 [Example 109, 6-cyclopentyl-N-(3-(4-cyclopropyl-4H-1,2,4-triazol-3-yl)phenyl)-3,4′-bipyridine-2′-carboxamide]",21
19,"CN1CCC(c2ccc(-c3ccnc(C(=O)Nc4cccc(-c5nncn5C5CC5)c4)c3)cn2)C1=O (stereo not drawn) [Example 110, N-(3-(4-cyclopropyl-4H-1,2,4-triazol-3-yl)phenyl)-6-(1-methyl-2-oxopyrrolidin-3-yl)-3,4′-bipyridine-2′-carboxamide]",8
20,"CNS(=O)(=O)c1ccc(-c2ccnc(C(=O)Nc3cccc(-c4nncn4C4CC4)n3)c2)cc1 [Example 111, N-(6-(4-cyclopropyl-4H-1,2,4-triazol-3-yl)pyridin-2-yl)-4-(4-(N-methylsulfamoyl)phenyl)picolinamide]",9
21,"O=C(Nc1cccc(-c2nncn2C2CC2)n1)c1cc(-c2cnc3ccccc3c2)ccn1 [Example 112, N-(6-(4-cyclopropyl-4H-1,2,4-triazol-3-yl)pyridin-2-yl)-4-(quinolin-3-yl)picolinamide]",14
22,"O=C(Nc1cccc(-c2nncn2C2CC2)n1)c1cc(-n2cnc(-c3ccccc3)c2)ccn1 [Example 113, N-(6-(4-cyclopropyl-4H-1,2,4-triazol-3-yl)pyridin-2-yl)-4-(4-phenyl-1H-imidazol-1-yl)picolinamide]",10
23,"CCCc1ccc(-c2ccnc(C(=O)Nc3cccc(-c4nncn4C4CC4)c3)c2)cn1 [Example 114, N-(3-(4-cyclopropyl-4H-1,2,4-triazol-3-yl)phenyl)-6-propyl-3,4′-bipyridine-2′-carboxamide]",5
24,"CCNc1ccc(-c2ccnc(C(=O)Nc3cccc(-c4nncn4C4CC4)c3)c2)cn1 [Example 119, N-(3-(4-cyclopropyl-4H-1,2,4-triazo1-3-yl)phenyl)-6-(ethylamino)-3,4′-bipyridine-2′-carboxamide]",9

# Second part, the compound after the results:
row,IC50 [nM],SMILES
1,15,"CC(C)(C)Cc1ccc(-c2ccnc(C(=O)Nc3cccc(-c4nncn4C4CC4)c3)c2)cn1 [Example 115, N-(3-(4-cyclopropyl-4H-1,2,4-triazol-3-yl)phenyl)-6-neopentyl-3,4′-bipyridine-2′-carboxamide]"
2,23,"Cn1c(-c2ccnc(C(=O)Nc3cccc(-c4nncn4C4CC4)c3)c2)cnc1-c1ccccc1 [Example 116, N-(3-(4-cyclopropyl-4H-1,2,4-triazol-3-yl)phenyl)-4-(1-methyl-2-phenyl-1H-imidazol-5-yl)picolinamide]"
3,12,"CCS(=O)(=O)c1ccc(-c2ccnc(C(=O)Nc3cccc(-c4nncn4C4CC4)c3)c2)cc1 [Example 117, N-(3-(4-cyclopropyl-4H-1,2,4-triazol-3-yl)phenyl)-4-(4-(ethylsulfonyl)phenyl)picolinamide]"
4,9,"CC(C)S(=O)(=O)c1ccc(-c2ccnc(C(=O)Nc3cccc(-c4nncn4C4CC4)c3)c2)cc1 [Example 118, N-(3-(4-cyclopropyl-4H-1,2,4-triazol-3-yl)phenyl)-4-(4-(isopropylsulfonyl)phenyl)picolinamide]"
5,6,"O=C(Nc1cccc(-c2nncn2C2CC2)c1)c1cc(-c2ccc(NC3CC3)nc2)ccn1 [Example 120, N-(3-(4-cyclopropyl-4H-1,2,4-triazol-3-yl)phenyl)-6-(cyclopropylamino)-3,4′-bipyridine-2′-carboxamide]"
6,47,"O=C(Nc1cccc(-c2nncn2C2CC2)c1)c1cc(-c2cnc3scnn23)ccn1 [Example 121, N-(3-(4-cyclopropyl-4H-1,2,4-triazol-3-yl)phenyl)-4-(imidazo[2,1-b][1,3,4]thiadiazol-5-yl)picolinamide]"
7,17,"O=C(Nc1cccc(-c2nncn2C2CC2)c1)c1cc(-n2cnc(Cl)c2)ccn1 [Example 122, 4-(4-chloro-1H-imidazol-1-yl)-N-(3-(4-cyclopropyl-4H-1,2,4-triazol-3-yl)phenyl)picolinamide]"
8,10,"O=C(Nc1cccc(-c2nncn2C2CC2)c1)c1cc(-c2cnc(C3CC3)nc2)ccn1 [Example 123, N-(3-(4-cyclopropyl-4H-1,2,4-triazol-3-yl)phenyl)-4-(2-cyclopropylpyrimidin-5-yl)picolinamide]"
9,422,"O=C(Nc1cccc(-c2nncn2C2CC2)c1)c1cc(-c2cccnc2)cc(C(F)(F)F)n1 [Example 124, N-(3-(4-cyclopropyl-4H-1,2,4-triazol-3-yl)phenyl)-6′-(trifluoromethyl)-3,4′-bipyridine-2′-carboxamide]"
10,1450,"O=C(Nc1cccc(-c2nncn2C2CC2)c1)c1cc(-c2cnc3ccccc3c2)cc(C(F)(F)F)n1 [Example 125, N-(3-(4-cyclopropyl-4H-1,2,4-triazol-3-yl)phenyl)-4-(quinolin-3-yl)-6-(trifluoromethyl)picolinamide]"
11,1040,"O=C(Nc1cccc(-c2cncn2C2CC2)n1)c1cc(-c2cnc3ccccc3c2)ccn1 [Example 126, N-(6-(1-cyclopropyl-1H-imidazol-5-yl)pyridin-2-yl)-4-(quinolin-3-yl)picolinamide]"
12,211,"O=C(Nc1cccc(-c2cncn2C2CC2)n1)c1cc(-c2ccc(C3CC3)nc2)ccn1 [Example 127, 6-cyclopropyl-N-(6-(1-cyclopropyl-1H-imidazol-5-yl)pyridin-2-yl)-3,4′-bipyridine-2′-carboxamide]"
